Reference: US8877908B2, “Stimulus-responsive apta chelamers” (The Administrators of the Tulane Educational Fund, priority 2008, dated 2014)
Like-named read-outs stand apart in the source and are kept apart here.

Experiments:
bovine trypsin = molecular target: T1, bovine trypsin (Bos taurus, UniProt P00760); assay: Fluorescence anisotropy titration of fluorescein-labelled ODNs with increasing trypsin; type: binding; conditions: for change of trypsin affinity on lowering salt to 5 mM KCl, 25 mM Hepes, pH 7.4: low salt versus high salt; for Kd: preformed quadruplex, 2 nM ODN
T1 construct: purchased Sigma Aldrich; host or cells: bovine pancreas
T1 sequence (P00760 24-246): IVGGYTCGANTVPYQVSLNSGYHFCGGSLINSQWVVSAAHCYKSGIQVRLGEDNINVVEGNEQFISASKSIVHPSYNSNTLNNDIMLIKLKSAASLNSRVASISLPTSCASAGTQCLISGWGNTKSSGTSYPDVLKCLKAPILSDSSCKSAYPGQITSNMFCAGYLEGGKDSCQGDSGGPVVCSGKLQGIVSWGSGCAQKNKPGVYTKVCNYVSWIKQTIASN
Protocol: The next step was to determine whether the intramolecular quadruplex conformation of AC 1 leads to enhanced affinity towards trypsin as a result of bidentate binding (FIG. 15, pathway A). […] AC 1 and ODNs 2 through 4 were first incubated in the presence of potassium cations to induce the quadruplex fold. The preformed quadruplexes were then incubated with increasing concentrations of trypsin at 25° C. (25 mM KCl, 200 mM NaCl, 25 mM Hepes, pH 7.4) for 30 min. Preliminary fluorescence anisotropy studies were conducted to ascertain that equilibrium was reached after 30 min and that there was no significant quenching of the fluorescein emission. The anisotropy associated with the fluorescein emission was followed at 525 nm (excitation at 495 nm). The resultant binding isotherms (FIG. 14) were fitted using non-linear regression to a 1:1 binding stoichiometry. […] In fact, the dissociation constant was determined to be 8.1×10^−7 M, a value that indicates a greater than 100 and 30 fold binding enhancement when compared to monodentate controls ODN 3 and ODN 2, respectively. […] This dissociation constant is attributed to non-specific interactions between bovine trypsin and ODN 4, since trypsin (pI=10.5) is positively charged at pH=7.4 and thus can potentially associate with the negatively charged DNA backbone. Support for such non-specific interactions comes from incubation of trypsin with ODN 4 where the concentration of salts were decreased to only 5 mM KCl, 25 mM Hepes, pH 7.4 (see, e.g., FIG. 23).
Immediately prior to each fluorescence polarization experiment, fresh stock solutions of trypsin were made in Hepes buffer (20 mM KCl, 200 mM NaCl, 25 mM Hepes, pH 7.4). Concentration of the trypsin in the stock solutions were determined using ultra-violet absorbance at 280 nm (ε=37669 M^−1cm^−1). Serial dilutions from the stock solution of trypsin were made into eppendorf tubes (spanning a range from 1×10^−9 to 1×10^−3M). To these trypsin-containing tubes were added aliquots of ODNs, such that the total concentration of ODNs in each eppendorf tube was 2 nM. After gently agitating, 150 uL from each eppendorf was transferred to respective borosilicate glass culture tubes and the tubes were allowed to equilibrate for 30 minutes at 25° C. (preliminary fluorescence anisotropy studies were conducted to ascertain that equilibrium was reached after 30 min and that there was no significant quenching of the fluorescein emission). Fluorescence polarization at 25° C. was determined on a Molecular Probes Beacon 2000 Fluorescence Polarization Instrument, using 495 and 525 nm narrow band pass filters for excitation and emission, respectively. Values of millipolarization (mP) from the Beacon 2000 were converted to millianisotropy (mA) using equation 1, where A is the anisotropy value, and P is the observed polarization.
1:1 (trypsin:ODN) binding mode: Anisotropy was plotted against trypsin (receptor protein) concentration and fitted to Equation 2 (a single-site model without receptor depletion), wherein Af is the anisotropy of the unbound ODN, Ab is the anisotropy of the bound ODN, Or is the total added ODN concentration (in M units), and Kd is the dissociation constant. Non-linear regression analysis using Origin 8.0 software was used for fitting the experimental data.
Cooperative binding mode: Binding equilibrium best described as cooperative binding was fitted to the Hill equation (Equation 3), where the fluorescence quantum yield of fluorescein is constant and the ODN substrate is limiting. R is the total protein concentration, R1/2 (or [trypsin]1/2) is the protein concentration required for half-maximal binding, and h is the Hill coefficient.

streptavidin = molecular target: T2, streptavidin (Streptomyces avidinii, UniProt P22629); assay: Streptavidin-immobilized microplate assay, hemin/H2O2 oxidation of ABTS, absorbance at 414 nm; conditions: 5 μM ODN with 5 μM hemin, 1 h incubation, washed, ABTS 2 mM
T2 construct: purchased Thermo Fisher Scientific (NUNC)
T2 sequence (P22629 25-183): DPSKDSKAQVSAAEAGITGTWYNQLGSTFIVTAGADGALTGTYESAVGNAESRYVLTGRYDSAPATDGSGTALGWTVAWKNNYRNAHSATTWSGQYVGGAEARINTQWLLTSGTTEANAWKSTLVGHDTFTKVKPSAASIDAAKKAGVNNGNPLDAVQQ
Protocol: As shown schematically in FIG. 28, streptavidin-immobilized, NUNC 96 well microplates were obtained from Thermo Fisher Scientific. Each well was pre-washed three times with 100 μL of PBS buffer (20 mM NaH2PO4, 30 mM Na2HPO4, 100 mM NaCl, pH 7.4). To each well, 100 μL of sample ODNs (5 μM, previously annealed from 95° C.) with hemin (5 μM) in Hepes buffer (50 mM HEPES, 20 mM KCl, 200 mM NaCl, 1% DMSO, 0.05% Triton X-100, pH 8.0) was incubated for one hour with gentle agitation. Sample ODN solutions were then removed by inversion, and each well washed three times with PBS buffer. Plate wells were then refilled with 98.5 μL of the Hepes buffer containing ABTS (2,2′-azino-bis(3-ethylbenzthiazoline-6-sulphonic acid)). Hydrogen peroxide (2 mM) was then introduced to each well bringing the total assay volume to 100 μL and total ABTS concentration to 2 mM. Visible light absorbance at 414 nm was then immediately followed on a Molecular Devices SpectraMax 190 microplate reader (FIG. 27).

thrombin = thrombin (Homo sapiens, UniProt P00734); conditions: literature; cited from earlier work
[1] = 5 mM KCl, 25 mM Hepes, pH 7.4, read-out: dissociation constant (Kd) for trypsin, low-salt conditions
[2] = high salt (20 or 25 mM KCl, 200 mM NaCl, 25 mM Hepes, pH 7.4), 25° C., 1:1 fit, read-out: dissociation constant (Kd) for trypsin

## AC 1 (TTGGTTGGTGTGGTTGGT; 5' dT fluorescein conjugate, ba and ipt arms attached, further chemistry not given here)
Bovine trypsin; Kd of quadruplex versus [trypsin]1/2 of duplex
  potency of quadruplex form in binding trypsin relative to double helical structure (duplex 1:5): about 20 times
Bovine trypsin
  change of trypsin affinity on lowering salt to 5 mM KCl, 25 mM Hepes, pH 7.4: only slight change in affinity
Bovine trypsin; [1]
  Kd: 2.8 µM
Bovine trypsin; [2]
  Kd: 0.81 µM
Bovine trypsin; ratio of Kd values, high salt
  binding enhancement compared to monodentate control ODN 2: > 30 fold
  binding enhancement compared to monodentate control ODN 3: greater than 100 fold

## AC-X1: hemin binding aptamer core (SEQ ID NO:9) with biotin as small molecule handle for streptavidin (TGGGTAGGGCGGGTTGGGT; DNA, backbone and methylation of C not given here; biotin tethered via linker)
streptavidin
  absorbance change at 414 nm versus control HBA well: greater absorbance change

## ODN 2 (TTGGTTGGTGTGGTTGGT; 5' ba arm attached, fluorescein-dT conjugate, further chemistry not given here)
Bovine trypsin; [2]
  Kd: 29 µM

## ODN 3 (TTGGTTGGTGTGGTTGGT; 3' ipt arm attached, fluorescein-dT conjugate, further chemistry not given here)
Bovine trypsin; [2]
  Kd: 90 µM

## ODN 4: 5′-TTGGTTGGTGTGGTTGGT-3′, no arms, 5′ terminal dT bearing fluorescein; negative control (listed as DNA, chemistry not fully specified)
Bovine trypsin
  change of trypsin affinity on lowering salt to 5 mM KCl, 25 mM Hepes, pH 7.4: significant decrease in the Kd
Bovine trypsin; [1]
  Kd: 31 µM
Bovine trypsin; [2]
  Kd: 2900 µM

## thrombin binding aptamer: core sequence 5′-GGTTGGTGTGGTTGG-3′ (SEQ ID NO:6)
thrombin
  dissociation constant (Kd) of complex with thrombin: micromolar range
